Literature values in US12121566B2, “Methods for treating gout” (Horizon Therapeutics USA, Inc., priority 2019, dated 2024).
Read-outs that look alike come from different tables or passages of the source.

Key:
[1] = test system: patients treated with allopurinol; settings: cited from earlier work
[2] = test system: serum proteins; settings: cited from earlier work
[3] = cited from earlier work; for detectable in urine: after 8 hours
[4] = cited from earlier work

Structure (SMILES) | patients who develop allergic reactions [1] | severe hypersensitivity syndrome [1] | bound to serum proteins [2] | detectable in urine [3] | oral absorption ([3]; oral administration) | stability in solution ([4]; excess sodium hydroxide (0.1N), especially on warming) | solubility in water ([4]; may be dissolved with one molar equivalent of alkali) | stability in solution ([4]; neutral or acid pH)
Oc1ncnc2[nH]ncc12 [allopurinol] | Approximately 2% | about 0.4% | – | – | – | – | – | –
Cn1cnc([N+](=O)[O-])c1Sc1ncnc2nc[nH]c12 [azathioprine, 6-[(1-methyl-4-nitro-1H-imidazol-5-yl)thio]-1H-purine] | – | – | 30% | no azathioprine or mercaptopurine is detectable | well absorbed | hydrolysis to mercaptopurine occurs | insoluble | stable
Sc1ncnc2nc[nH]c12 [mercaptopurine, 6-mercaptopurine] | – | – | 30% | no azathioprine or mercaptopurine is detectable | – | – | – | –
